From article PMC7070898 (Clinical and Translational Science, 2019)

How the values were obtained:
[1] = tested on: collagen‐induced arthritis; details: collagen‐induced arthritis mouse model ref 8; cited from earlier work
[2] = Plasma pharmacokinetics, noncompartmental, SAD/MAD trial; type: in vivo, human; details: for Vd/F / half-life: human, in vivo; for Vd/F: Vz/F, N 9, geometric mean (CV% GM)

C=CC(=O)N1CCC(CNc2ncnc(N)c2-c2ccc(Oc3ccccc3)cc2)CC1 [evobrutinib]
rheumatoid arthritis‐like symptoms [1]: rheumatoid arthritis‐like symptoms were inhibited | Vd/F ([2]; 25 mg, multiple-dose study day 1, 25 mg): 498 L | Vd/F ([2]; 75 mg, multiple-dose study day 1, 75 mg): 620 L | Vd/F ([2]; 200 mg, multiple-dose study day 1, 200 mg): 647 L | half-life ([2]; 500 mg, geometric mean terminal half‐life (t1/2), single doses 350 and 500 mg): 6.6 to 6.8 h | half-life ([2]; geometric mean terminal half‐life (t1/2), single doses 25–200 mg): 1.8 to 2.6 h | half-life ([2]; half‐life (relevant t1/2), overall summary, all doses): ~2 h | dose proportionality of AUC0–24h and Cmax ([2]; multiple dosing of 25–200 mg, power model): Dose proportionality of AUC0–24h and Cmax was demonstrated | time dependency of PK ([2]; part 2, day 14 vs day 1): no time dependency | Apparent clearance across doses ([2]; single dosing 25–500 mg, part 1): 2,553–3,995 mL/minute
